“And” between values parts separate entries of the source, which are not always exact repeats. Identical values can stand only once. Toxic doses and inconclusive results are not listed.
System: P388 leukemia ip, CD2F1 mice, survival T/C
Experiment: NCI In Vivo Anticancer Drug Screen. Data for tumor model P388 Leukemia (intraperitoneal) in CD2F1 (CDF1) mice
Conditions: endpoint: median survival time, higher = longer survival
Summary of the method: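 Mice carrying the transplanted tumor received test compound or vehicle. Survival was recorded in each group, and the value is the treated-group measurement divided by that of the vehicle-treated control group.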

[1] = dose: 50.0 mg/kg/injection, schedule: Q01DX005 (ip), vehicle: Klucel (hydroxypropylcellulose) (HPC)
[2] = dose: 60.0 mg/kg/injection, schedule: Q01DX005 (ip), vehicle: Klucel (hydroxypropylcellulose) (HPC)
[3] = dose: 120.0 mg/kg/injection, schedule: Q01DX005 (ip), vehicle: Klucel (hydroxypropylcellulose) (HPC)
[4] = dose: 240.0 mg/kg/injection, schedule: Q01DX005 (ip), vehicle: Klucel (hydroxypropylcellulose) (HPC)
[5] = dose: 60.0 mg/kg/injection, schedule: Q01DX005 (ip), vehicle: saline with Tween-80
[6] = dose: 120.0 mg/kg/injection, schedule: Q01DX005 (ip), vehicle: saline with Tween-80
[7] = dose: 240.0 mg/kg/injection, schedule: Q01DX005 (ip), vehicle: saline with Tween-80
[8] = dose: 100.0 mg/kg/injection, schedule: Q04DX002 (ip), vehicle: saline with Tween-80
[9] = dose: 200.0 mg/kg/injection, schedule: Q04DX002 (ip), vehicle: saline with Tween-80
[10] = dose: 400.0 mg/kg/injection, schedule: Q04DX002 (ip), vehicle: saline with Tween-80
[11] = dose: 100.0 mg/kg/injection, schedule: Q01DX005 (ip), vehicle: Klucel (hydroxypropylcellulose) (HPC)
[12] = dose: 100.0 mg/kg/injection, schedule: Q04DX002 (ip), vehicle: saline
[13] = dose: 200.0 mg/kg/injection, schedule: Q04DX002 (ip), vehicle: saline
[14] = dose: 400.0 mg/kg/injection, schedule: Q04DX002 (ip), vehicle: saline
[15] = dose: 200.0 mg/kg/injection, schedule: Q01DX005 (ip), vehicle: Klucel (hydroxypropylcellulose) (HPC)

Question: For `COc1ccc2c(c1)c(CBr)c(C)c[n+]2[O-]`, which T/C (dose: 6.25 mg/kg/injection, schedule: Q01DX005 (ip), vehicle: Klucel (hydroxypropylcellulose) (HPC)) is on record?
Answer: 104 % of control

Question: What about the T/C (dose: 12.5 mg/kg/injection, schedule: Q01DX005 (ip), vehicle: Klucel (hydroxypropylcellulose) (HPC)) of the same compound?
Answer: 102 % of control

Question: And the T/C [1]?
Answer: 86 % of control

Question: `c1ccc2c(SCCCSc3c4ccccc4nc4ccccc34)c3ccccc3nc2c1` was tested. Which T/C [2] did it give?
Answer: 97 % of control

Question: And the T/C [3]?
Answer: 91 % of control

Question: And the T/C [4]?
Answer: 95 % of control

Question: For `COC(=O)c1nnn(-c2ccc(C)c(C)c2)c1N`, which T/C [5] is on record?
Answer: 90 % of control

Question: What about the T/C [6] of the same compound?
Answer: 93 % of control

Question: And the T/C [7]?
Answer: 94 % of control

Question: Which T/C (dose: 248.0 mg/kg/injection, schedule: Q01DX010 (ip), vehicle: saline) does the source give for `CC(O)C(O)C=O` (centres undefined) here?
Answer: 110 % of control

Question: What does the source list for `[Cl][Pt+2][Cl].[NH-]C1CCCC1[NH-]` (centres undefined)?
Answer: T/C (dose: 3.13 mg/kg/injection, schedule: Q04DX002 (ip), vehicle: saline with Tween-80): 158 % of control; T/C (dose: 6.25 mg/kg/injection, schedule: Q04DX002 (ip), vehicle: saline with Tween-80): 198 % of control and 190 % of control and 171 % of control; T/C (dose: 12.5 mg/kg/injection, schedule: Q04DX002 (ip), vehicle: saline with Tween-80): 210 % of control and 197 % of control and 222 % of control; T/C (dose: 25.0 mg/kg/injection, schedule: Q04DX002 (ip), vehicle: saline with Tween-80): 235 % of control and 112 % of control

Question: How did the T/C [8] turn out when `O=C1C=CCCCC1(c1ccccc1)c1ccccc1` was run?
Answer: 96 % of control

Question: What about the T/C [9] of the same compound?
Answer: 96 % of control

Question: What about the T/C [10] of the same compound?
Answer: 96 % of control

Question: How did the T/C (dose: 50.0 mg/kg/injection, schedule: Q01DX009 (ip), vehicle: saline) turn out when `C/C=C/COc1ccccc1C=O` was run?
Answer: 99 % of control

Question: And the T/C (dose: 100.0 mg/kg/injection, schedule: Q01DX009 (ip), vehicle: saline)?
Answer: 106 % of control

Question: And the T/C (dose: 200.0 mg/kg/injection, schedule: Q01DX009 (ip), vehicle: saline)?
Answer: 100 % of control

Question: Which results are given for `Cc1ccc(S(=O)(=O)NNC(=O)c2ccccc2Nc2cccc(Br)c2)cc1`?
Answer: T/C (dose: 100.0 mg/kg/injection, schedule: Q01DX001 (ip), vehicle: Klucel (hydroxypropylcellulose) (HPC)): 97 % of control; T/C (dose: 200.0 mg/kg/injection, schedule: Q01DX001 (ip), vehicle: Klucel (hydroxypropylcellulose) (HPC)): 97 % of control; T/C (dose: 400.0 mg/kg/injection, schedule: Q01DX001 (ip), vehicle: Klucel (hydroxypropylcellulose) (HPC)): 98 % of control

Question: How did the T/C [2] turn out when `NNC(=O)Cc1cccc2ccc(Cl)cc12` was run?
Answer: 92 % of control

Question: And the T/C [3]?
Answer: 88 % of control

Question: For `Nc1ncnc2c1ncn2CC(O)CN(CCO)CCO` (centres undefined) (tested in a mixture with another compound), which T/C (dose: 60.0 mg/kg/injection, schedule: Q01DX005 (ip), vehicle: saline) is on record?
Answer: 93 % of control

Question: And the T/C (dose: 120.0 mg/kg/injection, schedule: Q01DX005 (ip), vehicle: saline)?
Answer: 95 % of control

Question: What about the T/C (dose: 240.0 mg/kg/injection, schedule: Q01DX005 (ip), vehicle: saline) of the same compound?
Answer: 94 % of control

Question: With `CCCCOC(C(=O)OCCN(CC)CC)(c1ccccc1)c1ccccc1` as the compound, how does the T/C [1] read?
Answer: 108 % of control

Question: What about the T/C [11] of the same compound?
Answer: 100 % of control

Question: For `COc1ccc(N2C(=O)C3C4C=CC(C3C2=O)N(C)C4=O)cc1` (centres undefined), which T/C [8] is on record?
Answer: 101 % of control

Question: What about the T/C [9] of the same compound?
Answer: 98 % of control

Question: What about the T/C [10] of the same compound?
Answer: 87 % of control

Question: Which results are given for `COC1(OC)/C(=N/NS(=O)(=O)c2ccc(C)cc2)C2CC1C1CC21` (centres undefined)?
Answer: T/C (dose: 25.0 mg/kg/injection, schedule: Q01DX009 (ip), vehicle: saline with Tween-80): 98 % of control; T/C (dose: 50.0 mg/kg/injection, schedule: Q01DX009 (ip), vehicle: saline with Tween-80): 96 % of control; T/C (dose: 100.0 mg/kg/injection, schedule: Q01DX009 (ip), vehicle: saline with Tween-80): 96 % of control

Question: `[Cl][Pt+2][Cl].[NH-]C1C(O)OC(CO)C(O)C1O.[NH-]C1C(O)OC(CO)C(O)C1O` (centres undefined) was tested. Which T/C (dose: 25.0 mg/kg/injection, schedule: Q04DX002 (ip), vehicle: saline) did it give?
Answer: 105 % of control

Question: What about the T/C (dose: 50.0 mg/kg/injection, schedule: Q04DX002 (ip), vehicle: saline) of the same compound?
Answer: 105 % of control

Question: What about the T/C [12] of the same compound?
Answer: 105 % of control

Question: And the T/C [13]?
Answer: 112 % of control

Question: And the T/C [14]?
Answer: 106 % of control

Question: For `CCCCSc1nn(CCC#N)c(=O)[nH]c1=O`, which T/C (dose: 25.0 mg/kg/injection, schedule: Q01DX005 (ip), vehicle: water) is on record?
Answer: 98 % of control

Question: What about the T/C (dose: 50.0 mg/kg/injection, schedule: Q01DX005 (ip), vehicle: water) of the same compound?
Answer: 100 % of control

Question: What about the T/C (dose: 100.0 mg/kg/injection, schedule: Q01DX005 (ip), vehicle: water) of the same compound?
Answer: 103 % of control

Question: And the T/C (dose: 200.0 mg/kg/injection, schedule: Q01DX005 (ip), vehicle: water)?
Answer: 100 % of control

Question: Which T/C [5] does the source give for `COc1nc(NC2OC(CO)C(O)C(O)C2O)c(C(=O)CCl)c(=O)n1C` (centres undefined) here?
Answer: 92 % of control

Question: And the T/C [6]?
Answer: 87 % of control

Question: And the T/C [7]?
Answer: 95 % of control and 96 % of control

Question: `Cc1nnc2c3c4c(sc3nc(C)n12)CCCC4` was tested. Which T/C [1] did it give?
Answer: 94 % of control

Question: And the T/C [11]?
Answer: 98 % of control

Question: What about the T/C [15] of the same compound?
Answer: 104 % of control

Question: What does the source list for `O=C(/C=C/c1ccc(O)cc1)OCC1OC(Oc2cc(O)c3c(c2)OC(c2ccc(O)cc2)CC3=O)C(O)C(O)C1O` (centres undefined)?
Answer: T/C [12]: 107 % of control; T/C [13]: 94 % of control; T/C [14]: 107 % of control

Question: What does the source list for `O=C1c2cc(I)cc(I)c2NC(O)c2cccn21` (centres undefined)?
Answer: T/C (dose: 0.1 mg/kg/injection, schedule: Q01DX005 (ip), vehicle: water): 102 % of control; T/C (dose: 0.2 mg/kg/injection, schedule: Q01DX005 (ip), vehicle: water): 98 % of control; T/C (dose: 0.4 mg/kg/injection, schedule: Q01DX005 (ip), vehicle: water): 102 % of control; T/C (dose: 0.8 mg/kg/injection, schedule: Q01DX005 (ip), vehicle: water): 98 % of control; T/C (dose: 1.6 mg/kg/injection, schedule: Q01DX005 (ip), vehicle: water): 99 % of control; T/C (dose: 5.0 mg/kg/injection, schedule: Q01DX005 (ip), vehicle: distilled water + Tween-80): 94 % of control; T/C (dose: 10.0 mg/kg/injection, schedule: Q01DX005 (ip), vehicle: distilled water + Tween-80): 95 % of control; T/C (dose: 20.0 mg/kg/injection, schedule: Q01DX005 (ip), vehicle: distilled water + Tween-80): 102 % of control; T/C (dose: 40.0 mg/kg/injection, schedule: Q01DX005 (ip), vehicle: distilled water + Tween-80): 102 % of control; T/C (dose: 80.0 mg/kg/injection, schedule: Q01DX005 (ip), vehicle: distilled water + Tween-80): 98 % of control

Question: Which results are given for `CC(Br)CCc1ccccc1Br` (centres undefined)?
Answer: T/C [1]: 101 % of control; T/C [11]: 93 % of control; T/C [15]: 97 % of control

Question: `CC[N+](C)(CC)CC(C)C1NS(=O)(=O)c2ccccc21` (centres undefined) was tested. Which T/C (dose: 25.0 mg/kg/injection, schedule: Q04DX003 (ip), vehicle: saline) did it give?
Answer: 104 % of control

Question: What about the T/C (dose: 50.0 mg/kg/injection, schedule: Q04DX003 (ip), vehicle: saline) of the same compound?
Answer: 98 % of control

Question: What about the T/C (dose: 100.0 mg/kg/injection, schedule: Q04DX003 (ip), vehicle: saline) of the same compound?
Answer: 98 % of control and 100 % of control

Question: What does the source list for `NS(=O)(=O)c1ccc(NCc2cnc3ccccc3c2)cc1`?
Answer: T/C (dose: 5.0 mg/kg/injection, schedule: Q01DX009 (ip), vehicle: saline): 94 % of control; T/C (dose: 10.0 mg/kg/injection, schedule: Q01DX009 (ip), vehicle: saline): 88 % of control; T/C (dose: 20.0 mg/kg/injection, schedule: Q01DX009 (ip), vehicle: saline): 98 % of control

Question: For `CCOC(=O)C(N)(CO)Cc1ccccc1` (centres undefined), which T/C (dose: 50.0 mg/kg/injection, schedule: Q01DX005 (ip), vehicle: saline) is on record?
Answer: 103 % of control

Question: And the T/C (dose: 100.0 mg/kg/injection, schedule: Q01DX005 (ip), vehicle: saline)?
Answer: 100 % of control

Question: What about the T/C (dose: 200.0 mg/kg/injection, schedule: Q01DX005 (ip), vehicle: saline) of the same compound?
Answer: 99 % of control

Question: What does the source list for `O=C(CCCCl)CC(O)(C(F)(F)F)C(F)(F)F`?
Answer: T/C (dose: 100.0 mg/kg/injection, schedule: Q04DX003 (ip), vehicle: saline with Tween-80): 110 % of control; T/C (dose: 200.0 mg/kg/injection, schedule: Q04DX003 (ip), vehicle: saline with Tween-80): 90 % of control

Question: `CCCC1(N2CCCC2)C(=O)NC(=O)N(CC)C1=O` (centres undefined) was tested. Which T/C [2] did it give?
Answer: 108 % of control

Question: And the T/C [3]?
Answer: 93 % of control

Question: What about the T/C [4] of the same compound?
Answer: 101 % of control

Question: For `COC(=O)C(Cc1cnc2nc(N)nc(N)c2n1)C(=O)OC`, which T/C (dose: 25.0 mg/kg/injection, schedule: Q01DX009 (ip), vehicle: distilled water + Tween-80) is on record?
Answer: 104 % of control

Question: What about the T/C (dose: 50.0 mg/kg/injection, schedule: Q01DX009 (ip), vehicle: distilled water + Tween-80) of the same compound?
Answer: 104 % of control

Question: And the T/C (dose: 100.0 mg/kg/injection, schedule: Q01DX009 (ip), vehicle: distilled water + Tween-80)?
Answer: 122 % of control
